# The source made the active and inactive calls. No cut-off for these calls is given here.
# How the values were obtained:
# [1] = system: Candida albicans; test: Antifungal activity against Candida albicans ATCC 10231 assessed as reduction in microbial growth up to 100 ug/ml after incubated for 48 hrs by bromocresol green dye based assay; format: functional, organism-based
# [2] = system: Bacillus subtilis; test: Antibacterial activity against Bacillus subtilis ATCC 6633 assessed as reduction in microbial growth up to 100 ug/ml after incubated for 48 hrs by resazurin dye based assay; format: functional, organism-based
# [3] = system: Escherichia coli; test: Antibacterial activity against Escherichia coli ATCC 25922 assessed as reduction in microbial growth up to 100 ug/ml after incubated for 48 hrs by resazurin dye based assay; format: functional, organism-based
# [4] = species on record: Mus musculus; test: Antiproliferative activity against mouse NS1 cells assessed as reduction in cell viability up to 100 ug/ml after 48 hrs by resazurin dye based assay; format: functional
# [5] = system: Saccharomyces cerevisiae; test: Antifungal activity against Saccharomyces cerevisiae ATCC 9763 assessed as reduction in microbial growth up to 100 ug/ml after incubated for 48 hrs by bromocresol green dye based assay; format: functional, organism-based
# [6] = system: Escherichia coli; test: Antibacterial activity against Escherichia coli ATCC 25922 assessed as reduction in microbial growth after incubated for 48 hrs by resazurin dye based assay; format: functional, organism-based
# [7] = system: Bacillus subtilis; test: Antibacterial activity against Bacillus subtilis ATCC 6633 assessed as reduction in microbial growth after incubated for 48 hrs by resazurin dye based assay; format: functional, organism-based; settings: ATCC 6633, 48 h
# [8] = system: Candida albicans; test: Antifungal activity against Candida albicans ATCC 10231 assessed as reduction in microbial growth after incubated for 48 hrs by bromocresol green dye based assay; format: functional, organism-based
# [9] = Antiproliferative activity against mouse NS1 cells assessed as reduction in cell viability after 48 hrs by resazurin dye based assay; format: functional; settings: for MIC: 48 h; for IC50: NS1, 48 h
# [10] = system: Saccharomyces cerevisiae; test: Antifungal activity against Saccharomyces cerevisiae ATCC 9763 assessed as reduction in microbial growth after incubated for 48 hrs by bromocresol green dye based assay; format: functional, organism-based; settings: ATCC 9763, 48 h
SMILES,Activity [1],Activity [2],Activity [3],Activity [4],Activity [5],IC50 [6],IC50 [7] [µM],MIC [7] [µg/mL],IC50 [8],MIC [9] [µg/mL],IC50 [9] [µM],IC50 [10] [µM]
CC(=O)CC1(O)C(=O)c2c(O)cc(C)c3c(O)cc(O)c(c23)C1=O (stereo not drawn),inactive,inactive,inactive,inactive,inactive,,,,,,,
Cc1cc(O)c2c3c(c(O)cc(O)c13)C(=O)C(O)=C2O,,,,,,Not Active,265,100,Not Active,25,70,> 400
O=c1[nH]cc(F)c(=O)[nH]1 [FLUOROURACIL],,,,,,,,,,,4.6,
CO[C@@]12c3c(C)cc(O)c4c(=O)n([C@H](CC(C)C)C(=O)O)cc(c34)C(=O)[C@@H]1[C@]13COC(=O)c4c(O)cc(C)c(c41)C(=O)[C@H]2[C@@H]3OC(C)=O,inactive,inactive,inactive,inactive,inactive,,,,,,,
CO[C@@]12c3c(C)cc(O)c4c(=O)occ(c34)C(=O)[C@@H]1[C@]13COC(=O)c4c(O)cc(C)c(c41)C(=O)[C@H]2[C@@H]3OC(C)=O,,,,,,Not Active,> 200,,Not Active,100,140,> 200
CO[C@@]12c3c(C)cc(O)c4c(=O)n([C@@H](CCC(N)=O)C(=O)O)cc(c34)C(=O)[C@@H]1[C@]13COC(=O)c4c(O)cc(C)c(c41)C(=O)[C@H]2[C@@H]3OC(C)=O,inactive,inactive,inactive,inactive,inactive,,,,,,,
CO[C@@]12c3c(C)cc(O)c4c(=O)n([C@@H](CC(C)C)C(=O)O)cc(c34)C(=O)[C@@H]1[C@]13COC(=O)c4c(O)cc(C)c(c41)C(=O)[C@H]2[C@@H]3OC(C)=O,inactive,inactive,inactive,inactive,inactive,,,,,,,
CC[C@H](C)[C@@H](C(=O)O)n1cc2c3c(c(C)cc(O)c3c1=O)[C@]1(OC)[C@H](C2=O)[C@]23COC(=O)c4c(O)cc(C)c(c42)C(=O)[C@H]1[C@@H]3OC(C)=O,inactive,inactive,inactive,inactive,inactive,,,,,,,
CC1(C)S[C@@H]2[C@H](NC(=O)[C@H](N)c3ccccc3)C(=O)N2[C@H]1C(=O)O [AMPICILLIN],,,,,,Not Active,0.9,,,,,
CO[C@@]12c3c(C)cc(O)c4c(=O)n([C@@H](CCC(=O)O)C(=O)O)cc(c34)C(=O)[C@@H]1[C@]13COC(=O)c4c(O)cc(C)c(c41)C(=O)[C@H]2[C@@H]3OC(C)=O,inactive,inactive,inactive,inactive,inactive,,,,,,,
Clc1ccccc1C(c1ccccc1)(c1ccccc1)n1ccnc1 [CLOTRIMAZOLE],,,,,,,,,Not Active,,,0.4
CO[C@@]12c3c(C)cc(O)c4c(=O)n([C@H](C(=O)O)C(C)C)cc(c34)C(=O)[C@@H]1[C@]13COC(=O)c4c(O)cc(C)c(c41)C(=O)[C@H]2[C@@H]3OC(C)=O,inactive,inactive,inactive,inactive,inactive,,,,,,,
Cc1cc(O)c2c3c1C(=O)[C@@H]1C4=C(C(=O)c5cn([C@H](C(=O)O)C(C)C)c(=O)c6c(O)cc(C)c4c56)[C@@]3(COC2=O)[C@H]1O,inactive,inactive,inactive,inactive,inactive,,,,,,,
CC[C@@H](C)[C@H](C(=O)O)n1cc2c3c(c(C)cc(O)c3c1=O)[C@]1(OC)[C@H](C2=O)[C@]23COC(=O)c4c(O)cc(C)c(c42)C(=O)[C@H]1[C@@H]3OC(C)=O,inactive,inactive,inactive,inactive,inactive,,,,,,,
